Reference: patent US11965199B2, “21-hydroxylation of steroids” (EUROAPI, priority 2014, dated 2024)
Read-outs that look alike come from different tables or passages of the source.

Experiments:
[1] = target: T1, bovine CYP21 (Bos taurus, UniProt P00191); test: Whole cell biotransformation (21-hydroxylation) in E. coli C43(DE3); format: cell-based
T1 construct: lacking the hydrophobic anchor region, i.e. a truncation of 29 N-terminal amino acid residues; 6xHis (C); expressed in transfected cells
T1 sequence (P00191 with tags, fused parts or gaps): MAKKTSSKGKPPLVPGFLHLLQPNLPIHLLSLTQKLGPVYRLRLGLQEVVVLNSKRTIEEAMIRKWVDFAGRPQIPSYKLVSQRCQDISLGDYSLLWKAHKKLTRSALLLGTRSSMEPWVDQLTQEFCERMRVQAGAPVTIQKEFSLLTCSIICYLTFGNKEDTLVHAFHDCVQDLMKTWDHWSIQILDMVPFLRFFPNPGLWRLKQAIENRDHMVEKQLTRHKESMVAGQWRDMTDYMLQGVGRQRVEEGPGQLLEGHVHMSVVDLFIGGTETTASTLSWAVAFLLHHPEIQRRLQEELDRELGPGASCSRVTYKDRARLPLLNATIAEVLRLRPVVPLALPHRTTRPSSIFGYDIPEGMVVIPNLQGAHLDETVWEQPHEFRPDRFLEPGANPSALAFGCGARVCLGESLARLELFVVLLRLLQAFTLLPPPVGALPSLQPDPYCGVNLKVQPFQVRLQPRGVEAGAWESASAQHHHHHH

[2] = target: T2, human CYP21 (Homo sapiens, UniProt P08686); test: as above; format: cell-based; design: lacking the hydrophobic anchor region, i.e. a truncation of 29 N-terminal amino acid residues; 6xHis (C); expressed in transfected cells; host or cells: E. coli C43(DE3) transformed with pET17b-based bi-/tricistronic vectors (p21h_...) and pGro12
T2 sequence (P08686 with tags, fused parts or gaps): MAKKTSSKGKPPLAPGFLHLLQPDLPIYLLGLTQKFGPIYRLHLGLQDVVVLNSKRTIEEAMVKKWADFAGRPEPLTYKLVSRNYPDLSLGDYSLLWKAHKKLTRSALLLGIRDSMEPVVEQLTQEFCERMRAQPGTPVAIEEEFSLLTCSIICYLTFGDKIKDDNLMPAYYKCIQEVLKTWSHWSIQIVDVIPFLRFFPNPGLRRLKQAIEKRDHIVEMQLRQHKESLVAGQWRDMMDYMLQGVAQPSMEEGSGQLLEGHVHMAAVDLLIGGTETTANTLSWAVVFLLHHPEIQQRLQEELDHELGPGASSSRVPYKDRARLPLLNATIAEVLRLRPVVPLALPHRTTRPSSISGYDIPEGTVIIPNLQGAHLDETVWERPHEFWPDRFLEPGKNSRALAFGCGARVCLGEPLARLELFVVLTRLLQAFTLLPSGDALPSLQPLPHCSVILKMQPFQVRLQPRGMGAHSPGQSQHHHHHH

[3] = target: T2, human CYP21; test: In vitro substrate conversion with purified enzymes (reconstituted cytochrome P450 system); format: biochemical; design: lacking the hydrophobic anchor region, i.e. a truncation of 29 N-terminal amino acid residues; 6xHis (C); made in house; host or cells: E. coli C43(DE3), co-expressing GroEL/GroES from pGro12; conditions: defined buffer, NADPH regeneration system, electron transfer proteins of Table 2
Description: (§1) Both enzymes were expressed in the E. coli strain C43(DE3) by coexpression of the E. coli chaperones GroEL/GroES encoded in the vector pGro12. These chaperones ensure a correct protein folding which is important for an incorporation of the heme prosthetic group. In FIG. 3 an SDS-PAGE and a CO difference spectrum of purified bovine CYP21 are shown. […] To determine the binding of medrane to both isozymes the binding constants (KD-values) were determined.
(§2) For an efficient substrate conversion, both isoforms require an electron transfer system which consists of two parts, the cytochrome P450 enzyme itself and one or two electron transfer proteins which are essential for a hydroxylation reaction. Without these transfer proteins, no reaction will take place.
(§3) For in vitro studies and a verification of a substrate conversion, all redox partners were purified.

[4] = target: T1, bovine CYP21; test: as above; format: biochemical; conditions: defined buffer, NADPH regeneration system, electron transfer proteins of Table 2
Description: as §1, §2, §3

[5] = bovine CYP21 with redox partners, GroEL/GroES co-expressed
[6] = human CYP21 with redox partners, GroEL/GroES co-expressed

Row | hydroxylation at position 21 (steroid conversion) [1, 5] | hydroxylation at position 21 (steroid conversion) [2, 6] | Molecule | hydroxylation at position 21 (steroid conversion) [1] | hydroxylation at position 21 (steroid conversion) [2] | in vitro conversion of medrane to premedrol [3] | in vitro conversion of medrane to premedrol [4]
1 |  |  | CC(=O)[C@H]1CC[C@H]2[C@@H]3CC[C@H]4CC(=O)CC[C@]4(C)[C@H]3CC[C@]12C [5α-dihydroprogesterone] | able to hydroxylate | able to hydroxylate |  | 
2 | able to hydroxylate | able to hydroxylate | CC(=O)[C@@]1(O)CC[C@H]2[C@@H]3C[C@H](C)C4=CC(=O)C=C[C@]4(C)[C@H]3[C@@H](O)C[C@@]21C [Deltamedrane, deltamedrane] |  |  |  | 
3 | able to hydroxylate | able to hydroxylate | CC(=O)[C@H]1CC[C@H]2[C@@H]3CCC4=CC(=O)CC[C@]4(C)[C@H]3CC[C@]12C [Progesterone, progesterone] |  |  |  | 
4 |  |  | medroxyprogesterone | able to hydroxylate | able to hydroxylate |  | 

Row | Molecule | hydroxylation at position 21 (steroid conversion) [1, 5] | hydroxylation at position 21 (steroid conversion) [2, 6] | hydroxylation at position 21 (steroid conversion) [1] | hydroxylation at position 21 (steroid conversion) [2] | in vitro conversion of medrane to premedrol [3] | in vitro conversion of medrane to premedrol [4]
5 | CC(=O)[C@@]1(O)CCC2C3C[C@H](C)C4=CC(=O)CC[C@]4(C)C3[C@@H](O)C[C@@]21C (stereo partly drawn) [Medrane, medrane] | able to hydroxylate | able to hydroxylate |  |  | very efficiently | very efficiently
